From patent publication US10696949B2, “Systems and methods for canine liver modeling” (Hepregen Corporation, priority 2015, dated 2020) come the findings set out here.

Where two headings read alike, the source gives them in different places.

Common to all, as to assay type: cell-based
For one series, the system named is dog hepatocytes. Nature of the series: Dog hepatocyte hypertrophy in standard HepatoPac micropatterned co-culture. How it is done: In order to create micropatterned co-cultures, hepatocytes were seeded in serum-free hepatocyte medium on collagen-patterned 24-well cell culture plates, resulting in a hepatocyte pattern due to selective cell adhesion. The cells were washed with media 2 to 6 hours later to remove unattached cells and incubated with serum supplemented hepatocyte medium overnight. 3T3-J2 or BJ fibroblasts were seeded in serum-supplemented fibroblast medium 12-24 hours later to create co-cultures. Culture medium was replaced with hepatocyte medium 24 hours after fibroblast seeding and subsequently replaced every one to two days. Spent media was stored for biochemical assays.
(§1) Hepatocyte growth factor (HGF) was implicated as one of the contributing factors causing dog hepatocyte hypertrophy and motility in the co-culture (data not shown). […] In summation, chemical inhibition (for example, via dexamethasone and TGFB2) of HGF secretion in the standard HepatoPac™ format is sufficient to abrogate hepatocyte hypertrophy.

A further series relates to HGF. Nature of the series: HGF secretion in standard HepatoPac co-culture under chemical inhibition. The note with it: standard HepatoPac format.
Excerpt: as §1

A further series concerns hepatocytes. Nature of the series: Hepatocyte hypertrophy in sandwich cultures with soluble HGF. The note with it: soluble HGF alone, data not shown.
Excerpt: as §1

In the case of `C[C@H](CCC(=O)O)[C@H]1CC[C@H]2[C@@H]3[C@@H](O)C[C@@H]4C[C@H](O)CC[C@]4(C)[C@H]3CC[C@]12C` [UDCA], in the series on dog hepatocytes, the dog hepatocyte hypertrophy entry is reported as “decreased dog hepatocyte hypertrophy”. Further, the “HGF level (secretion)” value in the series with HGF is listed as “reduction in HGF”. In the case of `C[C@@H]1C[C@H]2[C@@H]3CCC4=CC(=O)C=C[C@]4(C)[C@@]3(F)[C@@H](O)C[C@]2(C)[C@@]1(O)C(=O)CO` [dexamethasone], the dog hepatocyte hypertrophy result in the series with dog hepatocytes is recorded as “diminished hypertrophy”. As for `O=C1c2ccccc2-n2c1nc1ccccc1c2=O` [tryptanthrin], in the series on dog hepatocytes (standard HepatoPac format, 3T3-J2 stromal cells), the dog hepatocyte hypertrophy result is recorded as “decreased dog hepatocyte hypertrophy”. In addition, the “HGF level (secretion)” value in the series with HGF is given as “reduction in HGF”. On to “Soluble human HGF: Hepatocyte growth factor, soluble human protein added to sandwich cultures”, for which the hepatocyte hypertrophy result with hepatocytes is listed as “did not result in hepatocyte hypertrophy”. Regarding “TGFB2: HGF-inhibiting agent; known chemical inhibitor of HGF secretion”, in the series with dog hepatocytes, the dog hepatocyte hypertrophy entry is recorded as “diminished hypertrophy”. In addition, in the series with HGF, the “HGF level (secretion)” value is “HGF knockdown”.
